{"source": "patent US20250331522A1", "about": "“CHLORINE DIOXIDE […] TO PREVENT BLACK ROT DISEASE AND PROMOTE WOUND HEALING IN SWEETPOTATO” (Zhejiang A&F University, priority 2024, published 2025)", "key": {"C. fimbriata": {"tested_on": "C. fimbriata", "assay": "Inhibition of C. fimbriata in vitro (colony diameter on PDA plate after ClO2 fumigation)", "type": "cell-based, Ceratocystis fimbriata", "conditions": "ClO2 fumigation 4 h, culture 15 d", "description": "C. fimbriata preserved at −80° C. is thawed and resuscitated at 4° C., 200 μL C. fimbriata is taken into 15 mL PDA medium plates in the ultra-clean table and cultured at 28° C. for 7 d. After 7 d, 5 colonies of C. fimbriata are picked on the medium and inoculated into the expanding culture medium with an inoculation needle for further culture for 7 d. After 7 days, some of the expanding culture plates are used to prepare fungus pieces, and some plates are used to prepare spore suspension. […] The spore concentration is calculated by the blood cell counting plate, and adjusted to 10^6 spore/mL. […]\nThe expanding culture plate of C. fimbriata cultured in Embodiment 4 is selected, and the fungus piece is prepared by using a 10 mm sterile puncher, the fungus piece is reversely connected to the center of the PDA medium, and the PDA plate is placed in a 10 L fresh-keeping box, and the combined reagents prepared by the method described in Embodiments 1-3 are added, the plate is fumigated with ClO2 for 4 h, the culture plate is moved into a constant temperature incubator at 27° C. for 15 d after the treatment. The colony diameter of the culture plate is measured by the cross method every 3 days, the measurement is repeated three times, and the plate without ClO2 fumigation is used as the blank control."}, "[1]": {"tested_on": "sweetpotato wounds inoculated with C. fimbriata", "assay": "Promotion of wound-healing ability of sweetpotatoes (disease index after re-inoculation with C. fimbriata)", "type": "in vivo, Xinxiang sweetpotatoes; Ceratocystis fimbriata", "conditions": "fumigation 30 h; spores applied on day 0, 1, 3, 5, 7 of healing; incidence counted after 7 days", "description": "The effects of the combined reagents prepared by the method described in Embodiments 1-3 on promoting the wound-healing ability of sweetpotatoes are investigated, the method is as follows: […]\nAfter the treatment, the fresh-keeping box is first ventilated, and the sweetpotatoes are transferred into a normal storage incubator (25° C., humidity 85%) for storage. During the storage of sweetpotatoes, 20 μL of fungus solution with a spore concentration of 10^6 spore/mL prepared in Embodiment 4 is evenly applied to the surface of the wounds on the 0th, 1st, 3rd, 5th and 7th day, respectively, the incidence of the disease after 7 days is counted and the disease index is calculated. […] The sweetpotatoes with perforation damage but without ClO2 treatment are used as the control group, and the disease index is calculated by the following formula: […]"}, "[2]": {"tested_on": "C. fimbriata in sweetpotato", "assay": "Inhibitory effect on the growth of C. fimbriata in inoculated sweetpotato (lesion diameter and depth)", "type": "in vivo, Ceratocystis fimbriata; Xinxiang sweetpotatoes", "conditions": "fumigation 30 h, storage 15 days at 25° C., humidity 85%", "description": "C. fimbriata preserved at −80° C. is thawed and resuscitated at 4° C., 200 μL C. fimbriata is taken into 15 mL PDA medium plates in the ultra-clean table and cultured at 28° C. for 7 d. After 7 d, 5 colonies of C. fimbriata are picked on the medium and inoculated into the expanding culture medium with an inoculation needle for further culture for 7 d. After 7 days, some of the expanding culture plates are used to prepare fungus pieces, and some plates are used to prepare spore suspension. Sterile water is added into the culture plate, the mycelium is scraped and filtered through four layers of sterile gauze to remove the mycelium and medium impurities, and the spore suspension of C. fimbriata is obtained. The spore concentration is calculated by the blood cell counting plate, and adjusted to 10^6 spore/mL.\nThe inhibitory effect of the combined reagents prepared by the method described in Embodiments 1-3 on the growth of C. fimbriata in sweetpotato is investigated, the method is as follows: […]"}}, "data": [{"compound": "[O][Cl+][O-]", "note": "[ClO2, chlorine dioxide]", "values": [{"measurement": "growth of C. fimbriata (in words)", "setting": "C. fimbriata", "value": "directly inhibit the growth of C. fimbriata"}, {"measurement": "resistance to infection / wound healing of sweetpotatoes (disease index, in words)", "setting": "[1]", "value": "after 5 days of healing can completely resist the infection of pathogenic fungus"}, {"measurement": "diameters and depths of the lesion of inoculated sweetpotatoes (in words)", "setting": "[2]", "value": "decreases significantly with the increase of treatment concentration"}]}]}
